Experimental data as given in patent EP0310322A2, “Use of thromboxane B2 to constrict the pupil and lower intraocular pressure” (ALLERGAN, INC, priority 1987, dated 1989).

Tests used:
pupil [1] = assay: Pupil diameter after sequential intracameral injections in a sedated rabbit (Example 1); assay type: in vivo, New Zealand albino rabbit; details: for Pupil Diameter: 5 min after injection
Description: One New Zealand albino rabbit (2-4Kg) was sedated with an intramuscular injection of a 1:1 mixture of ketamine (Vetalar, Parke-Davis and xylazine (Rompum, Haver-Lockhart). The pupil diameters of both eyes were measured under standard room lighting with an optistick and recorded. The right eye was injected intracamerally with 100ng of thromboxane B₂ (12ul). The contralateral eye was injected with an equal volume of the vehicle solution, 0.05% BSA (Bovine Serum Albumin) in 0.01N CH₃COOH. Hamilton syringes with 30 gauge needles were used for the injection. Five minutes later the pupil diameters of both eyes were measured and recorded. Sequential injections of thromboxane B₂ (Sigma) were made into the right eye and an equal volume of vehicle into the left. Five minutes after each injection the pupil diameters were measured and recorded. A total of three injections of thromboxane B₂ (TXB2) were administered to the right eye; 100ng, 1ug, 10ug (12ul). After the last injection of TXB2, carbachol, 200ng (lul) was administered to both eyes, intracamerally, and the pupil diameters were measured after five minutes.

pupil [2] = assay: Pupil diameter after intracameral injection in flurbiprofen-pretreated sedated rabbits (Example 2); assay type: in vivo, New Zealand albino rabbits
Description: Seven New Zealand albino rabbits were treated, topically, with 0.03% flurbiprofen (Ocufen, Allergan) every 1/2 hour for two hours to inhibit endogenous synthesis of thromboxane. Following flurbiprofen treatment the rabbits were sedated with a 1:1 mixture of Ketamine and Rompum and the pupil diameters of both eyes were measured and recorded as before. 50ug (6ul) of TXB2 was injected intracamerally into the right eye of each rabbit and an equal volume of vehicle was administered to the left eyes. The pupil diameters were measured five minutes following the injections. This does of TXB2 was chosen because it is 1000 times the concentration of TXB2 found in clotting blood in rabbits (Ali and Mohammed, 1986). Carbachol 200ng (1ul) was injected into both eyes and the pupil diameters recorded after a five minute and a ten minute duration.
Refer to Figure 1. Next, both eyes were injected with 200ng (1ul) of carbachol.

pupil [3] = assay: Pupil diameter after intracameral injection in flurbiprofen-pretreated sedated cats (Example 3); assay type: in vivo, domestic cats; details: cat
Description: Fifteen male and female domestic cats were treated topically with 0.03% flurbiprofen (in both eyes) every 1/2 hours for two hours to inhibit endogenous thromboxane synthesis. The cats were sedated with 0.5 to 0.75ml of Rompum (20mg/ml) by intramuscular injection. […] The pupil diameters of both eyes were measured with an optistick and recorded. The right eye of each cat was injected intracamerally with one concentration of thromboxane B₂ ranging from a high of 500ng (10ul) to a low of 10ng (10ul). The contralateral eye was injected with an equal volume of the vehicle: saline. The pupil diameters were measured five and ten minutes after the injections. The cats were allowed to regain consciousness while in the laboratory.
Increasing concentrations of TXB2 led to greater constriction of the pupil (miosis). Maximum constriction of the pupil occurred at a dose of 500ng. The ED₅₀ was 70ng. Refer to Figure 2. […] The filled circles are the mean pupil diameters of the TXB2 treated eyes. The pupil diameters of the vehicle treated eyes are shown by the open circles.

pupil [4] = assay: Pupil diameter after topical drops in awake monkeys (Example 4); assay type: in vivo, Cebus apella monkeys; details: Cebus monkeys, total dose per eye 2.5 micrograms to 1 mg
Description: Eight Cebus apella monkeys were treated topically with thromboxane B₂ in one eye and normal saline in the contralateral eye. The monkeys were awake and alert and seated in primate chairs for the duration of the experiment. The thromboxane B₂ concentrations used were 0.625ug, 1.25ug, 6.25ug, 12.5ug, 62.5ug, 125.0ug and 250ug per drop. A 50ul drop was administered following the baseline pupil diameter measurement. Three more drops were given at 15 minute intervals. Total dose per eye after 4 drops ranged between 2.5 micrograms and 1 mg. Pupil diameter was measured just before each administration. The last measurement was taken at 60 minutes.
In the eight Cebus monkeys with TXB2-treated eyes, the pupil diameters decreased 0.75 to […] at 30 minutes.
The range of doses used probably represented the upper end of the dose-response curve. The 0.75 to […] pupil constriction represents a significant response in the small Cebus eye.

Row | Structure (SMILES) | Pupil Diameter (pupil [1]; rabbit #8394, eye OD, TXB2 100ng intracameral (12ul), baseline 6.0) [mm] | Pupil Diameter (pupil [1]; rabbit #8394, eye OD, second sequential TXB2 dose 1ug intracameral) [mm] | Pupil Diameter (pupil [1]; rabbit #8394, eye OD, third sequential TXB2 dose 10ug intracameral) [mm] | changes in pupil diameter (pupil [1]; rabbit #8394, three sequential intracameral doses 100ng, 1ug and 10ug) | ability of the pupillary sphincter to contract when stimulated by carbachol (pupil [2]; rabbits, topical 0.03% flurbiprofen pretreatment, TXB2 50ug intracameral, then carbachol 200ng) | pupil diameters versus vehicle eyes (pupil [2]; seven rabbits, 0.03% flurbiprofen pretreatment, 50ug (6ul) intracameral, 5 min after injection) | dose at which maximum constriction of the pupil occurred (pupil [3]; intracameral, doses 10ng to 500ng (10ul)) [ng] | effect on pupil diameter (pupil [3]; intracameral, doses 10ng to 500ng, measured 5 and 10 min after injection) | ED₅₀ (pupil [3]; pupil constriction (miosis), intracameral doses 10ng to 500ng (10ul), flurbiprofen pretreatment) [ng] | dose-response relationship of pupil constriction (pupil [4]) | pupil constriction (pupil [1]; rabbit #8394, carbachol 200ng (1ul) intracameral, both eyes) | Pupil Diameter (pupil [1]; rabbit #8394, eye OD (previously TXB2 treated), carbachol 200ng intracameral) [mm] | Pupil Diameter (pupil [1]; rabbit #8394, eye OS (previously vehicle treated), carbachol 200ng intracameral) [mm] | Pupil Diameter (pupil [2]; carbachol 200ng (1ul) injected into both eyes after TXB2 or vehicle, measured after 5 and 10 min)
1 | CCCCC[C@H](O)/C=C/[C@H]1OC(O)C[C@H](O)[C@@H]1C/C=C\CCCC(=O)O (some centres unmarked) [TXB2, thromboxane B₂] | 5 | 5 | 5.5 | no significant changes in pupil diameter | nor TXB2 administration affected the ability of the pupillary sphincter to contract | no different from those eyes receiving vehicle | 500 | dose-related effect on pupil diameter | 70 | no dose-response relationship was observed |  |  |  | 
2 | C[N+](C)(C)CCOC(N)=O [Carbachol, carbachol, reference compound] |  |  |  |  |  |  |  |  |  |  | constricted an expected amount | 3 | 1.5 | decreased significantly and to the same degree in both eyes
